Test results taken from publication PMC3376645 (Chemical Communications (Cambridge, England), 2012).
Blank lines part the entries; values can stand above or below the compound they belong to.

How the values were obtained:
[1] = approximate; stated without experiment or reference; cited from earlier work
thrombin = assay: LC-MS analysis of aliquots to determine conversion; format: biochemical; conditions: 1 mM PMSF
[2] = Gelation screening in buffer by heat/cool method; format: physicochemical; conditions: buffer 100 mM PBS, 10% DMSO, pH = 7.2

Compound: Nc1ccc(C(=O)O)cc1 [PABA, p-aminobenzoic acid]
- pKa [1]: ~5

Compound: O=S(=O)(F)Cc1ccccc1 [PMSF]
- effect of thrombin inhibitor on enzymatic cleavage of compound 4 (thrombin): decrease in the rate of enzymatic cleavage

- critical gel concentration (cgc) [2]: 54 mM
Compound: PABA-F5Phe-NH2 [Compound 1]
